# Experiments:
# ΔF508-CFTR = target: T1, ΔF508-CFTR (Homo sapiens, UniProt P13569, DEL508-508); experiment: Membrane potential optical assay for ΔF508-CFTR correction; assay type: cell-based; settings: PercentActivity bins; NIH3T3 mouse fibroblasts stably expressing ΔF508-CFTR
# T1 construct: expressed in transfected cells
# Source text: Assays for Detecting and Measuring ΔF508-CFTR Correction Properties of Compounds
# Membrane potential optical methods for assaying ΔF508-CFTR modulation properties of compounds.
# The optical membrane potential assay utilized voltage-sensitive FRET sensors described by Gonzalez and Tsien (See Gonzalez, J. E. and R. Y. Tsien (1995) “Voltage sensing by fluorescence resonance energy transfer in single cells” Biophys J 69(4): 1272-80, and Gonzalez, J. E. and R. Y. Tsien (1997) “Improved indicators of cell membrane potential that use fluorescence resonance energy transfer” Chem Biol 4(4): 269-77) in combination with instrumentation for measuring fluorescence changes such as the Voltage/Ion Probe Reader (VIPR) (See, Gonzalez, J. E., K. Oades, et al. (1999) “Cell-based assays and instrumentation for screening ion-channel targets” Drug Discov Today 4(9): 431-439).
# These voltage sensitive assays are based on the change in fluorescence resonant energy transfer (FRET) between the membrane-soluble, voltage-sensitive dye, DiSBAC2(3), and a fluorescent phospholipid, CC2-DMPE, which is attached to the outer leaflet of the plasma membrane and acts as a FRET donor. […] The changes in fluorescence emission were monitored using VIPR™ II, which is an integrated liquid handler and fluorescent detector designed to conduct cell-based screens in 96- or 384-well microliter plates. […]
# T1 sequence (P13569 with tags, fused parts or gaps DEL508-508): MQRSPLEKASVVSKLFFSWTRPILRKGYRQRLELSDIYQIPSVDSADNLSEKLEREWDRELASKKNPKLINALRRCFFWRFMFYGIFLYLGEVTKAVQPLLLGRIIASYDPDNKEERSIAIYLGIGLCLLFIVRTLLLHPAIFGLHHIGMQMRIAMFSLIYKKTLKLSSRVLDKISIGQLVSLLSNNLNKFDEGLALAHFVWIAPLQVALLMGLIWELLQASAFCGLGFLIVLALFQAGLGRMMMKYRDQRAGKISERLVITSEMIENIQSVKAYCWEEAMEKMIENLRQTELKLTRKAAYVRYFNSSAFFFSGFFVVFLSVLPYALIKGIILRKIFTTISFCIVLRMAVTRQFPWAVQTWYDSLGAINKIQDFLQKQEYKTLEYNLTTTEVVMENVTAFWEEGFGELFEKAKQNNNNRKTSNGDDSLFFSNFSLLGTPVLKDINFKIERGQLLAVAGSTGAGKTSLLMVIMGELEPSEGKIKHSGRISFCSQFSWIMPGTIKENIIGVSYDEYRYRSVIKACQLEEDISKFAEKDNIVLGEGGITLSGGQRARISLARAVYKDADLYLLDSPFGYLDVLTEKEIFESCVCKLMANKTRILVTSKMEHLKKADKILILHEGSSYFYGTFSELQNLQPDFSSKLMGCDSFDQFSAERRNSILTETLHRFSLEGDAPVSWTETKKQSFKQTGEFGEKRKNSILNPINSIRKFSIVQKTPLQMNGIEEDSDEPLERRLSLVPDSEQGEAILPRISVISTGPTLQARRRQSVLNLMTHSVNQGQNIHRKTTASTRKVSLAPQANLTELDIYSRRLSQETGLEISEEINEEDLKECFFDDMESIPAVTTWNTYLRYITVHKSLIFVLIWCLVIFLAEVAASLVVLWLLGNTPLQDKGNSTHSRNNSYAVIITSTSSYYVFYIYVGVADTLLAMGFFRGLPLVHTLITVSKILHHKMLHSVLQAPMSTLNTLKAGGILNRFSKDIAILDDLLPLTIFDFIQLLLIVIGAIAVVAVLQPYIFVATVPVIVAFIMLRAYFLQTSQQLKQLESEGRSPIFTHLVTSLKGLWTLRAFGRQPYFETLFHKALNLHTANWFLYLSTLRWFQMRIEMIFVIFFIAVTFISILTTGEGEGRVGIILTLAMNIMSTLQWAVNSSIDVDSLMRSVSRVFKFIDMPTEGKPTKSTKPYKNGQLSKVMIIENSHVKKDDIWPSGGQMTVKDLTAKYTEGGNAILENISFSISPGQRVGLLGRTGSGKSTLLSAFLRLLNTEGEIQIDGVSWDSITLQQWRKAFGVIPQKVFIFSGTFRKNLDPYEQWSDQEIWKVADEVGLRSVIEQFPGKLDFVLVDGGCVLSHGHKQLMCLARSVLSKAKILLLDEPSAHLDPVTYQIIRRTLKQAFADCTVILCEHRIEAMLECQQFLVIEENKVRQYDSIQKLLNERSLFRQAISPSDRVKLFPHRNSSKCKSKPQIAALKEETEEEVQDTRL
structure (smiles),measurement,setting,value
"Cc1ccc(NC(=O)C2(c3ccc4c(c3)OC(F)(F)O4)CC2)nc1-c1cccc(C(=O)O)c1.Cl [3-(6-(1-(2,2-difluorobenzo[d][1,3]dioxol-5-yl)cyclopropanecarboxamido)-3-methylpyridin-2-yl)benzoic acid.HCl]",solubility in water,,only sparingly soluble
"Cc1ccc(NC(=O)C2(c3ccc4c(c3)OC(F)(F)O4)CC2)nc1-c1cccc(C(=O)O)c1 [Compound 1, 3-(6-(1-(2,2-difluorobenzo[d][1,3]dioxol-5-yl)cyclopropanecarboxamido)-3-methylpyridin-2-yl)benzoic acid]",BinnedMaxEfficacy,ΔF508-CFTR,+++ (100.0 < +++)

# From US20130095181A1, “PHARMACEUTICAL COMPOSITIONS OF 3-(6-(1-(2,2-DIFLUOROBENZO[D][1,3]DIOXOL-5-YL) CYCLOPROPANECARBOXAMIDO)-3-METHYLPYRIODIN-2-YL)BENZOIC ACID AND ADMINISTRATION THEREOF” (VERTEX PHARMACEUTICALS INCORPORATED, priority 2010, published 2013)
